Data published in patent publication US11992499B2, “Quinoline derivatives for use in the treatment of inflammation diseases” (ABIVAX, priority 2018, dated 2024).
Entries after “also recorded” stand apart in the source; their conditions may differ.

Legend:
Format in all cases: in vivo, mice
[1] = test system: STAM model of non-alcoholic steatohepatitis; experiment: STAM model of NASH: F4/80 immunostaining; conditions: for F4/80-positive area (mean ± SD): n = 8
Protocol: NASH was induced in 48 male mice by a single subcutaneous injection of 200 μg streptozotocin (STZ, Sigma-Aldrich, USA) solution 2 days after birth and feeding with high fat diet (HFD, 57 kcal % fat, Cat #HFD32, CLEA Japan, Inc., Japan) after 4 weeks of age.
Compound A was administered at 3 dose levels of 10, 20 and 40 mg/kg once daily from 6 to 9 weeks of age. Compound B was administered at a dose of 40 mg/kg once daily from 6 to 9 weeks of age. Telmisartan was administered at a dose of 10 mg/kg once daily from 6 to 9 weeks of age.

[2] = test system: STAM model of non-alcoholic steatohepatitis; experiment: STAM model of NASH: Alpha-SMA immunostaining; conditions: for Alpha-SMA-positive area (mean ± SD): n = 8
Protocol: NASH was induced in 48 male mice by a single subcutaneous injection of 200 μg streptozotocin (STZ, Sigma-Aldrich, USA) solution 2 days after birth and feeding with high fat diet (HFD, 57 kcal % fat, Cat #HFD32, CLEA Japan, Inc., Japan) after 4 weeks of age. Compound A was administered at 3 dose levels of 10, 20 and 40 mg/kg once daily from 6 to 9 weeks of age. Compound B was administered at a dose of 40 mg/kg once daily from 6 to 9 weeks of age. Telmisartan was administered at a dose of 10 mg/kg once daily from 6 to 9 weeks of age. […] (Table 9 herein after)

[3] = test system: STAM model of non-alcoholic steatohepatitis; experiment: STAM model of NASH: HE staining and NAFLD Activity score; design: key to NAFLD Activity score (mean ± SD): NAFLD Activity score per Kleiner et al. 2005 criteria
Protocol: NASH was induced in 48 male mice by a single subcutaneous injection of 200 μg streptozotocin (STZ, Sigma-Aldrich, USA) solution 2 days after birth and feeding with high fat diet (HFD, 57 kcal % fat, Cat #HFD32, CLEA Japan, Inc., Japan) after 4 weeks of age. Compound A was administered at 3 dose levels of 10, 20 and 40 mg/kg once daily from 6 to 9 weeks of age. Compound B was administered at a dose of 40 mg/kg once daily from 6 to 9 weeks of age. Telmisartan was administered at a dose of 10 mg/kg once daily from 6 to 9 weeks of age. For HE staining, sections were cut from paraffin blocks of liver tissue prefixed in Bouin's solution and stained with Lillie-Mayer's Hematoxylin (Muto Pure Chemicals Co., Ltd., Japan) and eosin solution (FUJIFILM Wako Pure Chemical Corporation). NAFLD Activity score (NAS) was calculated according to the criteria of Kleiner (Kleiner D E. et al., Hepatology, 2005; 41:1313). To visualize collagen deposition, Bouin's fixed liver sections were stained using picro-Sirius red solution (Waldeck, Germany). For quantitative analysis of fibrosis area, bright field images of Sirius red-stained sections were captured around the central vein using a digital camera (DFC295; Leica, Germany) at 200-fold magnification, and the positive areas in 5 fields/section were measured using ImageJ software (National Institute of Health, USA).

[4] = summary statement, dose not stated
[5] = 10 mg/kg PO QD, 6-9 wks of age (Compound A low, Telmisartan groups)
[6] = 20 mg/kg PO QD (Compound A middle group)
[7] = 20 mg/kg PO QD, 6-9 wks of age (Compound A middle group)
[8] = 40 mg/kg PO QD (Compound A high, Compound B groups)
[9] = 40 mg/kg PO QD, 6-9 wks of age (Compound A high, Compound B groups)
[10] = 10 mg/kg PO QD, 6-9 wks of age (Compound A low, Telmisartan groups), n = 8
[11] = 20 mg/kg PO QD, 6-9 wks of age (Compound A middle group), n = 8
[12] = 40 mg/kg PO QD, 6-9 wks of age (Compound A high, Compound B groups), n = 8

FC(F)(F)Oc1ccc(Nc2ccc3cccc(Cl)c3n2)cc1 [8-Chloro-N-(4-(trifluoromethoxy)phenyl)quinolin-2-amine]
F4/80-positive area in the liver [1, 4]: decreased | Alpha-SMA in the liver [2, 4]: decreases | NAS compared with the Vehicle group [3, 4]: decreasing trend

FC(F)(F)Oc1ccc(Nc2ccc3cccc(Cl)c3n2)cc1 [Compound A, 8-Chloro-N-(4-(trifluoromethoxy)phenyl)quinolin-2-amine]
F4/80-positive area (mean ± SD) [1, 5]: 2.22 ± 0.46% | F4/80-positive area compared with the Vehicle group [1, 6]: tended to decrease | F4/80-positive area (mean ± SD) [1, 7]: 1.88 ± 0.62% | F4/80-positive area compared with the Vehicle group [1, 8]: significant decrease | F4/80-positive area (mean ± SD) [1, 9]: 1.53 ± 0.77% | Alpha-SMA-positive area (mean ± SD) [2, 5]: 1.39 ± 1.25% | Alpha-SMA-positive area (mean ± SD) [2, 7]: 0.91 ± 0.55% | Alpha-SMA-positive area compared with the Vehicle group ([2]; 40 mg/kg PO QD (Compound A high group)): tended to decrease | Alpha-SMA-positive area (mean ± SD) [2, 9]: 0.85 ± 0.41% | NAS compared with the Vehicle group ([3]; 10 mg/kg PO QD (Compound A low, Telmisartan groups)): tended to decrease; also recorded: decreasing trend | Hepatocyte ballooning score 0 (None), number of mice [3, 10]: 3 | Hepatocyte ballooning score 1 (Few balloon cells), number of mice [3, 10]: 2 | Hepatocyte ballooning score 2 (Many cells/prominent ballooning), number of mice [3, 10]: 3 | Lobular inflammation score 2 (2-4 foci/200×), number of mice [3, 10]: 7 | Lobular inflammation score 3 (>4 foci/200×), number of mice [3, 10]: 1 | NAFLD Activity score (mean ± SD) [3, 10]: 3.6 ± 1.1 | Steatosis score 0 (<5%), number of mice [3, 10]: 4 | Steatosis score 1 (5-33%), number of mice [3, 10]: 4 | NAS compared with the Vehicle group [3, 6]: tended to decrease; also recorded: decreasing trends | Hepatocyte ballooning score 0 (None), number of mice [3, 11]: 3 | Hepatocyte ballooning score 1 (Few balloon cells), number of mice [3, 11]: 3 | Hepatocyte ballooning score 2 (Many cells/prominent ballooning), number of mice [3, 11]: 2 | Lobular inflammation score 2 (2-4 foci/200×), number of mice [3, 11]: 6 | Lobular inflammation score 3 (>4 foci/200×), number of mice [3, 11]: 2 | NAFLD Activity score (mean ± SD) [3, 11]: 3.4 ± 1.2 | Steatosis score 0 (<5%), number of mice [3, 11]: 6 | Steatosis score 1 (5-33%), number of mice [3, 11]: 2 | NAS compared with the Vehicle group [3, 8]: tended to decrease; also recorded: decreasing trend | Hepatocyte ballooning score 0 (None), number of mice [3, 12]: 5 | Hepatocyte ballooning score 1 (Few balloon cells), number of mice [3, 12]: 2 | Hepatocyte ballooning score 2 (Many cells/prominent ballooning), number of mice [3, 12]: 1 | Lobular inflammation score 1 (<2 foci/200×), number of mice [3, 12]: 1 | Lobular inflammation score 2 (2-4 foci/200×), number of mice [3, 12]: 2 | Lobular inflammation score 3 (>4 foci/200×), number of mice [3, 12]: 5 | NAFLD Activity score (mean ± SD) [3, 12]: 3.4 ± 1.3 | Steatosis score 0 (<5%), number of mice [3, 12]: 5 | Steatosis score 1 (5-33%), number of mice [3, 12]: 3 | Overall effect in this NASH model ([3]; conclusion of the study): potential anti-NAS and anti-fibrosis effects | NAS compared with the Vehicle group [3, 4]: decreasing trends
